{"source": "patent US20240148821A1", "about": "“PHARMACEUTICAL USE OF CYCLIC PEPTIDE COMPOUND” (CHUGAI SEIYAKU KABUSHIKI KAISHA, priority 2021, published 2024)", "note": "Numbered stars: 1 amine (or outer) side, 2 acyl side, 3 side chain; on linkers, the order of the positions; unused ones are H or OH. Bridge positions count the residues as written; N and C are the ends. Square brackets hold non-standard residues; d marks the D form. Peptide text beside a SMILES is read from it. * marks the point of attachment. hPhe(3-Cl-4-CF3) = N[C@@H](CCc1ccc(C(F)(F)F)c(Cl)c1)C(=O)O; X112 = O=C([C@H](CCOc1ccc(C(F)(F)F)cc1)N[*:1])[*:2]; X98 = O=C([C@H](CCOc1ccc(Cl)c(Cl)c1)N[*:1])[*:2]; X102 = O=C([C@H](CCOc1ccc(Cl)cc1)N[*:1])[*:2]; X77 = O=C(CN(CCN1CCC(F)(F)CC1)[*:1])[*:2]; NGly(CH2(3-pyridyl)) = O=C(O)CNCc1cccnc1; X69 = CN(C)C(=O)COCCN(CC(=O)[*:2])[*:1]; Gly(Nα-CH2(4-Pyr)) = O=C(O)CNCc1ccncc1; X132 = O=C(CN(CCOCC(F)(F)F)[*:1])[*:2]; X78 = O=C(CN(CCc1cccnc1)[*:1])[*:2]; NMeCha = CN[C@@H](CC1CCCCC1)C(=O)O; X81 = O=C(CN(CCOCC(F)F)[*:1])[*:2]; NMeChg = CN[C@H](C(=O)O)C1CCCCC1; X12 = O=C(CN(CC1COC1)[*:1])[*:2]; X68 = COCCOCCN(CC(=O)[*:2])[*:1]; NMeD = CN[C@@H](CC(=O)O)C(=O)O; Gly(N-CH2CH2OH) = O=C(O)CNCCO; NMeL = CN[C@@H](CC(C)C)C(=O)O; NMeA = CN[C@@H](C)C(=O)O; Piperidide = C1CCN(*)CC1; Ac5c = NC1(C(=O)O)CCCC1; Sar = CNCC(=O)O"}
{"molecular_target": "protein-protein interaction between Kras and SOS1 (biotin-tagged human Kras loaded with GDP, His-tagged human SOS1) (Homo sapiens (Human), UniProt P01116, G12D)", "assay": "Protein-protein interaction inhibition between Kras and SOS1 (KrasG12D-SOS PPI) using AlphaScreen;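 also: kras produced in E. coli, Ni-coupled donor beads and streptavidin acceptor beads, excitation 680 nm with emission detected at 520–620 nm via singlet oxygen transfer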", "assay_type": "biochemical", "settings": "AlphaScreen; biotin-tagged human Kras loaded with GDP, His-tagged human SOS1; read-out: KRAS G12D-SOS PPI IC50", "units": {"IC50": "nM"}}
{"smiles": "CC[C@H](C)[C@@H]1NC(=O)[C@H](CC(C)C)N(C)C(=O)C[C@@H](C(=O)N2CCCCC2)N(C)C(=O)[C@H](C2CCCCC2)N(C)C(=O)C2(CCCC2)NC(=O)CN(CCN2CCC(F)(F)CC2)C(=O)[C@H](CCc2ccc(C(F)(F)F)c(Cl)c2)NC(=O)CN(C)C(=O)[C@H](CC2CCCCC2)N(C)C(=O)CN(C)C(=O)CN(C)C1=O", "note": "[Compound 2022] ([NMeL]I[Sar][Sar][NMeCha][Sar][hPhe(3-Cl-4-CF3)][X77][Ac5c][NMeChg][NMeD]-Piperidide; lactam N-11)", "IC50": 3.8}
{"smiles": "CC[C@H](C)[C@@H]1NC(=O)[C@H](CC(C)C)N(C)C(=O)C[C@@H](C(=O)N2CCCCC2)N(C)C(=O)[C@H](C2CCCCC2)N(C)C(=O)C2(CCCC2)NC(=O)CN(CCOCC(F)(F)F)C(=O)[C@H](CCc2ccc(C(F)(F)F)c(Cl)c2)NC(=O)CN(C)C(=O)[C@H](CC2CCCCC2)N(C)C(=O)CN(C)C(=O)CN(C)C1=O", "note": "[Compound 2024] ([NMeL]I[Sar][Sar][NMeCha][Sar][hPhe(3-Cl-4-CF3)][X132][Ac5c][NMeChg][NMeD]-Piperidide; lactam N-11 (inferred); C-terminus assumed)", "IC50": 4.3}
{"smiles": "CC[C@H](C)[C@@H]1NC(=O)[C@H](CC(C)C)N(C)C(=O)C[C@@H](C(=O)N2CCCCC2)N(C)C(=O)[C@H](C2CCCCC2)N(C)C(=O)C2(CCCC2)NC(=O)CN(CCOCCOC)C(=O)[C@H](CCc2ccc(C(F)(F)F)c(Cl)c2)NC(=O)CN(C)C(=O)[C@H](CC2CCCCC2)N(C)C(=O)CN(C)C(=O)CN(C)C1=O", "note": "[Compound 2025] ([NMeL]I[Sar][Sar][NMeCha][Sar][hPhe(3-Cl-4-CF3)][X68][Ac5c][NMeChg][NMeD]-Piperidide; lactam N-11 (inferred); C-terminus assumed)", "IC50": 1.4}
{"smiles": "CC[C@H](C)[C@@H]1NC(=O)[C@H](CC(C)C)N(C)C(=O)C[C@@H](C(=O)N2CCCCC2)N(C)C(=O)[C@H](C2CCCCC2)N(C)C(=O)C2(CCCC2)NC(=O)CN(Cc2cccnc2)C(=O)[C@H](CCc2ccc(C(F)(F)F)c(Cl)c2)NC(=O)CN(C)C(=O)[C@H](CC2CCCCC2)N(C)C(=O)CN(C)C(=O)CN(C)C1=O", "note": "[Compound 2026] ([NMeL]I[Sar][Sar][NMeCha][Sar][hPhe(3-Cl-4-CF3)][NGly(CH2(3-pyridyl))][Ac5c][NMeChg][NMeD]-Piperidide; lactam N-11 (inferred); C-terminus assumed)", "IC50": 1.3}
{"smiles": "CC[C@H](C)[C@@H]1NC(=O)[C@H](CC(C)C)N(C)C(=O)C[C@@H](C(=O)N2CCCCC2)N(C)C(=O)[C@H](C2CCCCC2)N(C)C(=O)C2(CCCC2)NC(=O)CN(CC2COC2)C(=O)[C@H](CCc2ccc(C(F)(F)F)c(Cl)c2)NC(=O)CN(C)C(=O)[C@H](CC2CCCCC2)N(C)C(=O)CN(C)C(=O)CN(C)C1=O", "note": "[Compound 2031] ([NMeL]I[Sar][Sar][NMeCha][Sar][hPhe(3-Cl-4-CF3)][X12][Ac5c][NMeChg][NMeD]-Piperidide; lactam N-11 (inferred); C-terminus assumed)", "IC50": 0.82}
{"smiles": "CC[C@H](C)[C@@H]1NC(=O)[C@H](CC(C)C)N(C)C(=O)C[C@@H](C(=O)N2CCCCC2)N(C)C(=O)[C@H](C2CCCCC2)N(C)C(=O)C2(CCCC2)NC(=O)CN(CCc2cccnc2)C(=O)[C@H](CCc2ccc(C(F)(F)F)c(Cl)c2)NC(=O)CN(C)C(=O)[C@H](CC2CCCCC2)N(C)C(=O)CN(C)C(=O)CN(C)C1=O", "note": "[Compound 2032] ([NMeL]I[Sar][Sar][NMeCha][Sar][hPhe(3-Cl-4-CF3)][X78][Ac5c][NMeChg][NMeD]-Piperidide; lactam N-11 (inferred); C-terminus assumed)", "IC50": 1.2}
{"smiles": "CC[C@H](C)[C@@H]1NC(=O)[C@H](CC(C)C)N(C)C(=O)C[C@@H](C(=O)N2CCCCC2)N(C)C(=O)[C@H](C2CCCCC2)N(C)C(=O)C2(CCCC2)NC(=O)CN(Cc2ccncc2)C(=O)[C@H](CCc2ccc(C(F)(F)F)c(Cl)c2)NC(=O)CN(C)C(=O)[C@H](CC2CCCCC2)N(C)C(=O)CN(C)C(=O)CN(C)C1=O", "note": "[Compound 2033] ([NMeL]I[Sar][Sar][NMeCha][Sar][hPhe(3-Cl-4-CF3)][Gly(Nα-CH2(4-Pyr))][Ac5c][NMeChg][NMeD]-Piperidide; lactam N-11 (inferred); C-terminus assumed)", "IC50": 0.65}
{"smiles": "CC[C@H](C)[C@@H]1NC(=O)[C@H](CC(C)C)N(C)C(=O)C[C@@H](C(=O)N2CCCCC2)N(C)C(=O)[C@H](C2CCCCC2)N(C)C(=O)C2(CCCC2)NC(=O)CN(CCOCC(F)F)C(=O)[C@H](CCc2ccc(C(F)(F)F)c(Cl)c2)NC(=O)CN(C)C(=O)[C@H](CC2CCCCC2)N(C)C(=O)CN(C)C(=O)CN(C)C1=O", "note": "[Compound 2036] ([NMeL]I[Sar][Sar][NMeCha][Sar][hPhe(3-Cl-4-CF3)][X81][Ac5c][NMeChg][NMeD]-Piperidide; lactam N-11 (inferred); C-terminus assumed)", "IC50": 1.1}
{"smiles": "CC[C@H](C)[C@@H]1NC(=O)[C@H](CC(C)C)N(C)C(=O)C[C@@H](C(=O)N2CCCCC2)N(C)C(=O)[C@H](C2CCCCC2)N(C)C(=O)C2(CCCC2)NC(=O)CN(CCO)C(=O)[C@H](CCc2ccc(C(F)(F)F)c(Cl)c2)NC(=O)CN(C)C(=O)[C@H](CC2CCCCC2)N(C)C(=O)CN(C)C(=O)CN(C)C1=O", "note": "[Compound 2037, (11S,17S,26S,29S,33S,36S)-11-[2-[3-chloro-4-(trifluoromethyl)phenyl]ethyl]-36-cyclohexyl-17-(cyclohexylmethyl)-9-(2-hydroxyethyl)-29-isobutyl-15,18,21,24,30,34,37-heptamethyl-26-[(1S)-1-methylpropyl]-33-(piperidine-1-carbonyl)-6,9,12,15,18,21,24,27,30,34,37-undecazaspiro[4.33]octatriacontane-7,10,13,16,19,22,25,28,31,35,38-undecone] ([NMeL]I[Sar][Sar][NMeCha][Sar][hPhe(3-Cl-4-CF3)][Gly(N-CH2CH2OH)][Ac5c][NMeChg][NMeD]-Piperidide; lactam N-11)", "IC50": 0.58}
{"smiles": "CC[C@H](C)[C@@H]1NC(=O)[C@H](CC(C)C)N(C)C(=O)C[C@@H](C(=O)N2CCCCC2)N(C)C(=O)[C@H](C2CCCCC2)N(C)C(=O)C2(CCCC2)NC(=O)CN(CCOCC(=O)N(C)C)C(=O)[C@H](CCc2ccc(C(F)(F)F)c(Cl)c2)NC(=O)CN(C)C(=O)[C@H](CC2CCCCC2)N(C)C(=O)CN(C)C(=O)CN(C)C1=O", "note": "[Compound 2038, 2-[2-[(11S,17S,26S,29S,33S,36S)-11-[2-[3-chloro-4-(Trifluoromethyl)phenyl]ethyl]-36-cyclohexyl-17-(cyclohexylmethyl)-29-isobutyl-15,18,21,24,30,34,37-heptamethyl-26-[(1S)-1-methylpropyl]-7,10,13,16,19,22,25,28,31,35,38-undecaoxo-33-(piperidine-1-carbonyl)-6,9,12,15,18,21,24,27,30,34,37-undecazaspiro[4.33]octatriacontan-9-yl]ethoxy]-N,N-dimethyl-acetamide] ([NMeL]I[Sar][Sar][NMeCha][Sar][hPhe(3-Cl-4-CF3)][X69][Ac5c][NMeChg][NMeD]-Piperidide; lactam N-11)", "IC50": 8.3}
{"smiles": "CC[C@H](C)[C@@H]1NC(=O)[C@H](C)N(C)C(=O)C[C@@H](C(=O)N2CCCCC2)N(C)C(=O)[C@H](C2CCCCC2)N(C)C(=O)C2(CCCC2)NC(=O)[C@@H]2CCCN2C(=O)[C@H](CCOc2ccc(Cl)c(Cl)c2)NC(=O)CN(C)C(=O)[C@H](CC2CCCCC2)N(C)C(=O)CN(C)C(=O)CN(C)C1=O", "note": "[Compound 2039, (3S,9S,18S,21S,25S,28S,34S)-28-cyclohexyl-9-(cyclohexylmethyl)-3-[2-(3,4-dichlorophenoxy)ethyl]-7,10,13,16,21,22,26,29-octamethyl-18-[(1S)-1-methylpropyl]-25-(piperidine-1-carbonyl)spiro[1,4,7,10,13,16,19,22,26,29,32-undecazabicyclo[32.3.0]heptatriacontane-31,1′-cyclopentane]-2,5,8,11,14,17,20,23,27,30,33-undecone] ([NMeA]I[Sar][Sar][NMeCha][Sar][X98]P[Ac5c][NMeChg][NMeD]-Piperidide; lactam N-11)", "IC50": 18}
{"smiles": "CC[C@H](C)[C@@H]1NC(=O)[C@H](C)N(C)C(=O)C[C@@H](C(=O)N2CCCCC2)N(C)C(=O)[C@H](C2CCCCC2)N(C)C(=O)C2(CCCC2)NC(=O)[C@@H]2CCCN2C(=O)[C@H](CCOc2ccc(Cl)cc2)NC(=O)CN(C)C(=O)[C@H](CC2CCCCC2)N(C)C(=O)CN(C)C(=O)CN(C)C1=O", "note": "[Compound 2040, (3S,9S,18S,21S,25S,28S,34S)-3-[2-(4-chlorophenoxy)ethyl]-28-cyclohexyl-9-(cyclohexylmethyl)-7,10,13,16,21,22,26,29-octamethyl-18-[(1S)-1-methylpropyl]-25-(piperidine-1-carbonyl)spiro[1,4,7,10,13,16,19,22,26,29,32-undecazabicyclo[32.3.0]heptatriacontane-31,1-cyclopentane]-2,5,8,11,14,17,20,23,27,30,33-undecone] ([NMeA]I[Sar][Sar][NMeCha][Sar][X102]P[Ac5c][NMeChg][NMeD]-Piperidide; lactam N-11)", "IC50": 150}
{"smiles": "CC[C@H](C)[C@@H]1NC(=O)[C@H](C)N(C)C(=O)C[C@@H](C(=O)N2CCCCC2)N(C)C(=O)[C@H](C2CCCCC2)N(C)C(=O)C2(CCCC2)NC(=O)[C@@H]2CCCN2C(=O)[C@H](CCOc2ccc(C(F)(F)F)cc2)NC(=O)CN(C)C(=O)[C@H](CC2CCCCC2)N(C)C(=O)CN(C)C(=O)CN(C)C1=O", "note": "[Compound 2041, (3S,9S,18S,21S,25S,28S,34S)-28-cyclohexyl-9-(cyclohexylmethyl)-7,10,13,16,21,22,26,29-octamethyl-18-[(1S)-1-methylpropyl]-25-(piperidine-1-carbonyl)-3-[2-[4-(trifluoromethyl)phenoxy]ethyl]spiro[1,4,7,10,13,16,19,22,26,29,32-undecazabicyclo[32.3.0]heptatriacontane-31,1′-cyclopentane]-2,5,8,11,14,17,20,23,27,30,33-undecone] ([NMeA]I[Sar][Sar][NMeCha][Sar][X112]P[Ac5c][NMeChg][NMeD]-Piperidide; lactam N-11)", "IC50": 110}
